Source: the NIST ThermoML archive (doi:10.1021/je060271a)
Where “and” joins values, the source holds several entries; their conditions need not be identical. Equal values may be shown once. Numbers after ± are expanded uncertainties.

Conditions: 283.16 K, Liquid, Vibrating tube method

CCCC(=O)OCC(COC(=O)CCC)(COC(=O)CCC)COC(=O)CCC [pentaerythritol tetrabutyrate]
Conditions	mass density
961.7 kPa	1059.5 ± 1.3 kg/m3
999.7 kPa	1059.6 ± 1.3 kg/m3
1040.4 kPa	1059.6 ± 1.3 kg/m3
1083.6 kPa	1059.5 ± 1.3 kg/m3
1139.2 kPa	1059.6 ± 1.3 kg/m3
1188.5 kPa	1059.7 ± 1.3 kg/m3
1241.1 kPa	1059.6 ± 1.3 kg/m3
1292.9 kPa	1059.7 ± 1.3 kg/m3
1371.5 kPa	1059.9 ± 1.3 kg/m3
1415.8 kPa	1059.8 ± 1.3 kg/m3
1495.3 kPa	1059.8 ± 1.3 kg/m3
1575.5 kPa	1059.9 ± 1.3 kg/m3
1654.8 kPa	1060 ± 1.3 kg/m3
1780.7 kPa	1060 ± 1.3 kg/m3
1864.8 kPa	1060 ± 1.3 kg/m3
1998.8 kPa	1060 ± 1.3 kg/m3
2122.7 kPa	1060.1 ± 1.3 kg/m3
2233.6 kPa	1060.3 ± 1.3 kg/m3
2404.2 kPa	1060.4 ± 1.3 kg/m3
2613.1 kPa	1060.5 ± 1.3 kg/m3
2776.8 kPa	1060.6 ± 1.3 kg/m3
2989.2 kPa	1060.8 ± 1.3 kg/m3
3065.6 kPa	1060.8 ± 1.3 kg/m3
3087.4 kPa	1060.8 ± 1.3 kg/m3
3106 kPa	1060.8 ± 1.3 kg/m3
3124.9 kPa	1060.8 ± 1.3 kg/m3
3144.5 kPa	1060.9 ± 1.3 kg/m3
3170 kPa	1060.8 ± 1.3 kg/m3
3189.5 kPa	1060.9 ± 1.3 kg/m3
3209.5 kPa	1060.9 ± 1.3 kg/m3
3233.2 kPa	1060.9 ± 1.3 kg/m3
3253.5 kPa	1060.9 ± 1.3 kg/m3
3273.9 kPa	1060.9 ± 1.3 kg/m3
3294.9 kPa	1061 ± 1.3 kg/m3
3316.1 kPa	1060.8 ± 1.3 kg/m3
3341.2 kPa	1060.9 ± 1.3 kg/m3
3361.8 kPa	1061 ± 1.3 kg/m3
3387.1 kPa	1061.1 ± 1.3 kg/m3
3409.1 kPa	1061 ± 1.3 kg/m3
3431.1 kPa	1061 ± 1.3 kg/m3
3452.8 kPa	1061 ± 1.3 kg/m3
3479 kPa	1061.1 ± 1.3 kg/m3
3502 kPa	1060.9 ± 1.3 kg/m3
3524 kPa	1061.1 ± 1.3 kg/m3
3546.7 kPa	1061.2 ± 1.3 kg/m3
3574.4 kPa	1061.1 ± 1.3 kg/m3
3597.5 kPa	1061.1 ± 1.3 kg/m3
3620.7 kPa	1061.1 ± 1.3 kg/m3
3648.8 kPa	1061.1 ± 1.3 kg/m3
3672.5 kPa	1061.2 ± 1.3 kg/m3
3696.2 kPa	1061.2 ± 1.3 kg/m3
3720.5 kPa	1061.2 ± 1.3 kg/m3
3749.6 kPa	1061.2 ± 1.3 kg/m3
3773 kPa	1061.2 ± 1.3 kg/m3
3845.7 kPa	1061.3 ± 1.3 kg/m3
3868.4 kPa	1061.3 ± 1.3 kg/m3
3891.5 kPa	1061.4 ± 1.3 kg/m3
3914 kPa	1061.3 ± 1.3 kg/m3
3941.5 kPa	1061.3 ± 1.3 kg/m3
3964.7 kPa	1061.3 ± 1.3 kg/m3
3987.6 kPa	1061.4 ± 1.3 kg/m3
4009.4 kPa	1061.4 ± 1.3 kg/m3
4029.8 kPa	1061.4 ± 1.3 kg/m3
4033 kPa	1061.4 ± 1.3 kg/m3
4416.7 kPa	1061.6 ± 1.3 kg/m3
4447.7 kPa	1061.7 ± 1.3 kg/m3
4473.5 kPa	1061.6 ± 1.3 kg/m3
4500 kPa	1061.6 ± 1.3 kg/m3
4526.4 kPa	1061.8 ± 1.3 kg/m3
4559.5 kPa	1061.7 ± 1.3 kg/m3
4586.3 kPa	1061.8 ± 1.3 kg/m3
4619.9 kPa	1061.7 ± 1.3 kg/m3
4643.6 kPa	1061.7 ± 1.3 kg/m3
4676.5 kPa	1061.6 ± 1.3 kg/m3
4704.4 kPa	1061.8 ± 1.3 kg/m3
4732.4 kPa	1061.8 ± 1.3 kg/m3
4765.8 kPa	1061.8 ± 1.3 kg/m3
4794.4 kPa	1061.8 ± 1.3 kg/m3
4823.6 kPa	1061.8 ± 1.3 kg/m3
4858.1 kPa	1061.8 ± 1.3 kg/m3
4887.2 kPa	1061.9 ± 1.3 kg/m3
4916.6 kPa	1061.9 ± 1.3 kg/m3
4946.3 kPa	1061.9 ± 1.3 kg/m3
4983.2 kPa	1061.9 ± 1.3 kg/m3
4995.1 kPa	1062.1 ± 1.3 kg/m3
4995.4 kPa	1061.9 ± 1.3 kg/m3
4997.5 kPa	1062.1 ± 1.3 kg/m3
4999.9 kPa	1062 ± 1.3 kg/m3
5001.3 kPa	1061.9 ± 1.3 kg/m3
5002.4 kPa	1061.9 ± 1.3 kg/m3
5003.4 kPa	1062 ± 1.3 kg/m3
5003.7 kPa	1062 ± 1.3 kg/m3
5004.3 kPa	1061.9 ± 1.3 kg/m3
5004.6 kPa	1062 ± 1.3 kg/m3
5004.8 kPa	1062 ± 1.3 kg/m3
5005 kPa	1062 ± 1.3 kg/m3
5005.3 kPa	1062.1 ± 1.3 kg/m3
5005.5 kPa	1062 ± 1.3 kg/m3
5005.6 kPa	1062.1 ± 1.3 kg/m3 and 1062 ± 1.3 kg/m3
5005.8 kPa	1062 ± 1.3 kg/m3
5006 kPa	1061.8 ± 1.3 kg/m3
5006.2 kPa	1061.9 ± 1.3 kg/m3
5006.3 kPa	1061.9 ± 1.3 kg/m3 and 1062 ± 1.3 kg/m3
5006.5 kPa	1062.1 ± 1.3 kg/m3 and 1062 ± 1.3 kg/m3
5006.7 kPa	1061.9 ± 1.3 kg/m3
5006.9 kPa	1061.9 ± 1.3 kg/m3 and 1062 ± 1.3 kg/m3
5007 kPa	1062.1 ± 1.3 kg/m3 and 1062 ± 1.3 kg/m3
5007.2 kPa	1061.9 ± 1.3 kg/m3 and 1062.1 ± 1.3 kg/m3 and 1062 ± 1.3 kg/m3
5007.4 kPa	1061.9 ± 1.3 kg/m3 and 1062 ± 1.3 kg/m3
5007.5 kPa	1062 ± 1.3 kg/m3
5007.7 kPa	1062 ± 1.3 kg/m3 and 1061.9 ± 1.3 kg/m3
5007.9 kPa	1062.1 ± 1.3 kg/m3 and 1062 ± 1.3 kg/m3
5008 kPa	1062 ± 1.3 kg/m3 and 1062.1 ± 1.3 kg/m3
5008.1 kPa	1061.9 ± 1.3 kg/m3 and 1062.2 ± 1.3 kg/m3 and 1062 ± 1.3 kg/m3
5008.2 kPa	1062 ± 1.3 kg/m3 and 1061.9 ± 1.3 kg/m3
5008.3 kPa	1062 ± 1.3 kg/m3 and 1061.9 ± 1.3 kg/m3
5008.5 kPa	1062 ± 1.3 kg/m3 and 1062.1 ± 1.3 kg/m3
5008.6 kPa	1061.9 ± 1.3 kg/m3
5009.4 kPa	1061.9 ± 1.3 kg/m3
5009.6 kPa	1061.9 ± 1.3 kg/m3 and 1062 ± 1.3 kg/m3
5009.8 kPa	1062 ± 1.3 kg/m3 and 1061.9 ± 1.3 kg/m3
5010 kPa	1062 ± 1.3 kg/m3
5010.1 kPa	1061.9 ± 1.3 kg/m3 and 1062 ± 1.3 kg/m3
5010.3 kPa	1062 ± 1.3 kg/m3 and 1062.1 ± 1.3 kg/m3 and 1061.9 ± 1.3 kg/m3
5010.5 kPa	1061.9 ± 1.3 kg/m3
5010.7 kPa	1062.1 ± 1.3 kg/m3 and 1062 ± 1.3 kg/m3
5010.8 kPa	1062 ± 1.3 kg/m3 and 1061.9 ± 1.3 kg/m3
5011 kPa	1062.2 ± 1.3 kg/m3
5011.2 kPa	1062.1 ± 1.3 kg/m3 and 1061.9 ± 1.3 kg/m3
5011.3 kPa	1062 ± 1.3 kg/m3
5011.7 kPa	1061.9 ± 1.3 kg/m3 and 1062 ± 1.3 kg/m3 and 1062.1 ± 1.3 kg/m3
5011.9 kPa	1061.9 ± 1.3 kg/m3 and 1062 ± 1.3 kg/m3
5012 kPa	1061.9 ± 1.3 kg/m3
5012.2 kPa	1062 ± 1.3 kg/m3 and 1062.1 ± 1.3 kg/m3 and 1061.9 ± 1.3 kg/m3
5012.4 kPa	1062 ± 1.3 kg/m3 and 1061.9 ± 1.3 kg/m3 and 1062.1 ± 1.3 kg/m3
5012.6 kPa	1062 ± 1.3 kg/m3 and 1061.9 ± 1.3 kg/m3 and 1061.8 ± 1.3 kg/m3
5012.7 kPa	1062 ± 1.3 kg/m3
5012.9 kPa	1062 ± 1.3 kg/m3
5013.1 kPa	1062 ± 1.3 kg/m3
5013.8 kPa	1062 ± 1.3 kg/m3
5013.9 kPa	1062 ± 1.3 kg/m3
5017.5 kPa	1062 ± 1.3 kg/m3
5022.8 kPa	1062 ± 1.3 kg/m3
5022.9 kPa	1062.1 ± 1.3 kg/m3
5025.4 kPa	1062 ± 1.3 kg/m3
5025.5 kPa	1062 ± 1.3 kg/m3
